# Measurements published in patent US5871753A, “Regulated transcription of targeted genes and other biological events” (Board of Trustees of the Leland Stanford Junior University, priority 1995, dated 1999).
# Assays:
# [1] = system: myristoylated chimeric CD3.zeta./FKBP12 (MZF3E) receptor; assay: NFAT-SX secreted alkaline phosphatase reporter activation through myristoylated chimeric CD3.zeta./FKBP12 (MZF3E) receptor; assay type: cell-based, human; conditions: 1 ng/ml FK506, FK1012B-stimulated
# Procedure: Activity of the Dimeric FK506 Derivative, FK1012B, on the Myristoylated Chimeric CD3.zeta./FKBP12 (MZF3E) Receptor
# 5 μg of the eukaryotic expression vector, pBJ5, containing a myristoylated chimeric receptor was co-transfected with 4 μg NFAT-SX. MZE, MZF1E, MZF2E and MZF3E contain 0, 1, 2, or 3 copies of FKBP12, respectively, downstream of a myristoylated CD3.zeta. cytoplasmic domain (see FIG. 2). As a control, 5 μg of pBJ5 was used in a parallel transfection. After 24 hours, aliquots of each transfection containing approximately 10^5 cells were incubated with log dilutions of the drug, FK1012B, as indicated. As a positive control and to control for transfection efficiency, ionomycln (1 μm) and PMA (25 ng/ml) were added to aliquots from each transfection. After an additional 12 hour incubation, the supernatants were assayed for alkaline phosphatase activity and these activities were expressed relative to that or the positive control samples. […] Compare FIGS. 7 and 8.
# A myristoylation sequence from c-src was obtained from Pellman, et al., Nature 314, 374, and joined to a complementary sequence of CD3.zeta. to provide a primer which was complementary to a sequence 3' of the transmembrane domain, namely P#8908 (SEQ ID NO. 23). This primer has a SacII site adjacent to the 5' terminus and a XhoI sequence adjacent to the 3' terminus of the myristoylation sequence. […]
# [2] = system: chimeric receptor TAC/TAC/ZETA (TTZ); assay: Secreted alkaline phosphatase reporter (NFAT-SX and other IL-2 enhancer elements) activation via cross-linking of chimeric receptor TAC/TAC/ZETA in TAg Jurkat cells; assay type: cell-based, human; conditions: 1 ng/ml FK506; TTZ-transfected TAg Jurkat cells
# Description: Induction of isolated IL-2 Enhancer-Binding Transcription Factors by cross-Linking the CD3.zeta. Chain of the T-Cell Receptor
# The plasmid pSXNeo/IL2 (IL2-SX) (FIG. 1), placing the placental secreted alkaline phosphatase gene under the control of human IL-2 promoter (-325 to +47; MCB(86) 6, 3042), and variants (i.e. NFAT-SX, NFκB-SX, OAP/Oct1-SX, and AP-1-SX) under the control of the minimal IL-2 promoter (-325 to -294 and -72 to +47) plus synthetic oligomers, containing various promoter elements (i.e. NFAT, NKκKB, OAP/Oct-1, and AP1, respectively), were made by three piece ligations of 1) pPL/SEAP (Berger, et al., Gene (1988) 66,1) cut with SspI and HindIII; 2) pSV2/Neo (Southern and Berg, J. Mol. Appl. Genet. (1982) 1, 332) cut with NdeI, blunted with Klenow, then cut with PvuI; and 3) various promoter-containing plasmids (i.e. NFAT-CD8, κB-CD8, cx12lacZ-Oct-1, AP1-LUCIF3H, or cx15IL2) (described below) cut with PvuI and HindIII. NFAT-CD8 contains 3 copies of the NFAT-binding site (-286 to -257; Genes and Dev. (1990) 4, 1823) and cx12lacZ-Oct contains 4 copies of the OAP/Oct-1/(ARRE-1) binding site (MCB, (1988) 8, 1715) from the human IL-2 enhancer; κB-CD8 contains 3 copies of the NFκB binding site from the murine κ light chain (EMBO (1990) 9, 4425) and AP1-LUCIF3H contains 5 copies of the AP-1 site (5'-[…]-3') from the metallothionen promoter. […]
# [3] = system: chimeric FKBP12/CD3.zeta. (1FK3) receptor; assay: NFAT-inducible secreted alkaline phosphatase reporter activation through chimeric FKBP12/CD3.zeta. (1FK3) receptor; assay type: cell-based, human; conditions: 2 ng/ml FK506; FK1012A-stimulated 1FK3 transfected cells
# Procedure: Activity of the Dimeric FK506 Derivative, FK1012A, on the Chimeric FKBP12/CD3.zeta. (1FK3) Receptor
# 5 μg of the eukaryotic expression vector, pBJ5, (based on pCDL-SRαwith a polylinker inserted between the 16S splice site and the poly A site) containing the chimeric receptor (1FK3), was co-transfected with 4 μg of the NFAT-inducible secreted alkaline phosphatase reporter plasmid, NFAT-SX. As a control, 5 μg of pBJ5 was used, instead of 1FK3/pBJ5, in a parallel transfection. After 24 hours, aliquots of each transfection containing approximately 10^5 cells were incubated with log dilutions of the drug, FK1012A, as indicated. As a positive control and to control for transfection efficiency, ionomycin (1 μm) and PMA (25 ng/ml) were added to aliquots from each transfection. After an additional 14 hour incubation, the supernatants were assayed for alkaline phosphatase activity and these activities were expressed relative to that of the positive control samples.
# To obtain the binding domain for FK506, plasmid rhFKBP (provided by S. Schreiber, Nature (1990) 346, 674) was used with P#6052 (SEQ ID NO. 33) and P#6053 (SEQ ID NO. 35) to obtain a 340 bp XhoI-SalI fragment containing human FKBP12. This fragment was inserted into pBluescript digested with XhoI and SalI to provide plasmid FK12/KS, which was the source for the FKBP12 binding domain. […]
# [4] = system: NF-AT-directed transcription; conditions: Emmel et al. 1989; Flanagan et al. 1991; cited from earlier work
compound,measurement,setting,value
C=CC[C@@H]1/C=C(\C)C[C@H](C)C[C@H](OC)[C@H]2O[C@@](O)(C(=O)C(=O)N3CCCC[C@H]3C(=O)O[C@H](/C(C)=C/[C@@H]3CC[C@@H](O)[C@H](OC)C3)[C@H](C)[C@@H](O)CC1=O)[C@H](C)C[C@@H]2OC [FK506],stimulations after addition of FK506,[1],dropped all stimulations to near background levels
same,activity due to NFAT after addition of FK506,[2],dropped all activity due to NFAT to background levels
same,stimulations after addition of FK506,[3],dropped all stimulations to background levels
same,inhibition of NF-AT-directed transcription,[4],Inhibition of NF-AT-directed transcription
